Experimental data taken from article PMC5007552, “The hVps34‐SGK3 pathway alleviates sustained PI3K/Akt inhibition by stimulating mTORC1 and tumour growth” (The EMBO Journal, 2016).
Where “and” joins values, the source holds several entries; their conditions need not be identical. Equal entries are not always repeated.

Test system: ZR-75-1 cells
Experiment: NanoString human kinome mRNA quantification
Assay type: cell-based
Excerpt: Human mRNAs were hybridised to NanoString human kinome and control code sets, then subjected to quantification using NanoString software. […] To permit data compaction, and simple kinome‐wide comparisons, the fold changes are log2 transformed. […] Cell pellets were resuspended at a concentration of ~6,500 cells/μl in RLT buffer (Qiagen). […] For total copy numbers, triplicate normalised count values were averaged, and to calculate fold induction, means were divided by triplicate mean values from matched DMSO controls. P‐values were calculated using unpaired t‐test (GraphPad Prism software) by employing treated and control count data for each kinase mRNA.

With `NC1(c2ccc(-c3nc4ccn5c(=O)[nH]nc5c4cc3-c3ccccc3)cc2)CCC1` [MK-2206] the “MAST2 Normalised counts (single replicates)” value (MAST2 mRNA, replicates 1-3) was 738.65 and 699.23 and 725.5, the “MAST3 Normalised counts (single replicates)” value (MAST3 mRNA, replicates 1-3) was 218.81 and the “MAST4 Normalised counts Average” value (MAST4 mRNA, average of 3) was 166.143. The “MAST4 Normalised counts (single replicates)” value (MAST4 mRNA, replicates 1-3) was 166 and 165.82 and 166.61, the “MASTL Normalised counts Average” value (MASTL mRNA, average of 3) was 679.5 and the “MASTL Normalised counts (single replicates)” value (MASTL mRNA, replicates 1-3) was 701.38 and 631.47 and 705.65. The “MATK Normalised counts (single replicates)” value (MATK mRNA, replicates 1-3) was 210.28, the “MERTK Normalised counts Average” value (MERTK mRNA, average of 3) was 1 and the “MERTK Normalised counts (single replicates)” value (MERTK mRNA, replicates 1-3) was 1. For the same molecule, the “MET Normalised counts Average” value (MET mRNA, average of 3) was 45.06, the “MET Normalised counts (single replicates)” value (MET mRNA, replicates 1-3) was 44.2 and 35.51 and 55.47 and the “MINK1 Normalised counts Average” value (MINK1 mRNA, average of 3) was 1315.77. The “MINK1 Normalised counts (single replicates)” value (MINK1 mRNA, replicates 1-3) was 1338.56 and 1283.89 and 1324.87, the Average normalised counts (MKNK1 mRNA) was 747.723 and the Average normalised counts (MKNK2 mRNA) was 1542.12. The Average normalised counts (MLKL mRNA) was 206.987, the Average normalised counts (MOK mRNA) was 276.793 and the Average normalised counts (MOS mRNA) was 1.463. It also gave an Average normalised counts (MST1R mRNA) of 587.597, an Average normalised counts (MST4 mRNA) of 1197.2 and an Average normalised counts (MTOR mRNA) of 1169.76. The Average normalised counts (MUSK mRNA) was 1, the Average normalised counts (MYLK2 mRNA) was 3.573 and the Average normalised counts (MYLK3 mRNA) was 4.65. It also gave an Average normalised counts (MYLK4 mRNA) of 3.183, an Average normalised counts (MYLK mRNA) of 35.0933 and an Average normalised counts (MYO3B mRNA) of 1.693. The Average normalised counts (NEK1 mRNA) was 126.33, the Average normalised counts (NEK2 mRNA) was 1658.91 and the Average normalised counts (NEK3 mRNA) was 279.833. The Average normalised counts (NEK5 mRNA) was 63.3867, the Average normalised counts (NEK6 mRNA) was 316.677 and the Average normalised counts (NEK7 mRNA) was 1505.67. The Average normalised counts (NEK8 mRNA) was 178.517, the Average normalised counts (NEK9 mRNA) was 368.757 and the Average normalised counts (NEK10 mRNA) was 2.217. The Average normalised counts (NIM1 mRNA) was 1.163, the Average normalised counts (NLK mRNA) was 173.16 and the Average normalised counts (NPR1 mRNA) was 1. It also gave an Average normalised counts (NPR2 mRNA) of 1, an Average normalised counts (NRBP1 mRNA) of 1653.03 and an Average normalised counts (NRBP2 mRNA) of 1124.63. For the same molecule, the Average normalised counts (NRK mRNA) was 29.1233, the Average normalised counts (NTRK1 mRNA) was 2.95 and the Average normalised counts (NTRK2 mRNA) was 77.2267. The Average normalised counts (NTRK3 mRNA) was 11.2267, the Average normalised counts (NUAK1 mRNA) was 101.57 and the Average normalised counts (NUAK2 mRNA) was 96.2433. It also gave an Average normalised counts (OBSCN mRNA) of 96.8, an Average normalised counts (OXSR1 mRNA) of 220.06 and an Average normalised counts (PAK1 mRNA) of 710.853. The Average normalised counts (PAK2 mRNA) was 2547.5, the Average normalised counts (PAK3 mRNA) was 3.48 and the Average normalised counts (PAK4 mRNA) was 1206.53. For the same molecule, the Average normalised counts (PAK6 mRNA) was 64.56, the Average normalised counts (PAK7 mRNA) was 2.957 and the Average normalised counts (PAN3 mRNA) was 788.86. For the same molecule, the “ROCK2 normalised counts, average” value (ROCK2 mRNA, average of 3 replicates) was 1654.49, the ROCK2 normalised counts (ROCK2 mRNA, single replicates) was 1580.35 and 1693.07 and 1690.04 and the “ROR1 normalised counts, average” value (ROR1 mRNA, average of 3 replicates) was 3.17. For the same molecule, the ROR1 normalised counts (ROR1 mRNA, single replicates) was 1.48 and 3.37 and 4.66, the “ROR2 normalised counts, average” value (ROR2 mRNA, average of 3 replicates) was 177.843 and the ROR2 normalised counts (ROR2 mRNA, single replicates) was 183.27 and 188.41 and 161.85. The “ROS1 normalised counts, average” value (ROS1 mRNA, average of 3 replicates) was 1, the ROS1 normalised counts (ROS1 mRNA, single replicates) was 1 and the “RPS6KA1 normalised counts, average” value (RPS6KA1 mRNA, average of 3 replicates) was 743.577. The RPS6KA1 normalised counts (RPS6KA1 mRNA, single replicates) was 752.28 and 733.11 and 745.34, the “RPS6KA2 normalised counts, average” value (RPS6KA2 mRNA, average of 3 replicates) was 42.18 and the RPS6KA2 normalised counts (RPS6KA2 mRNA, single replicates) was 39.65 and 43.33 and 43.56. The “RPS6KA3 normalised counts, average” value (RPS6KA3 mRNA, average of 3 replicates) was 81.17, the RPS6KA3 normalised counts (RPS6KA3 mRNA, single replicates) was 77.83 and 82.42 and 83.26 and the “RPS6KA4 normalised counts, average” value (RPS6KA4 mRNA, average of 3 replicates) was 830.71. For the same molecule, the RPS6KA4 normalised counts (RPS6KA4 mRNA, single replicates) was 858.63 and 809.56 and 823.94, the “RPS6KA5 normalised counts, average” value (RPS6KA5 mRNA, average of 3 replicates) was 131.06 and the RPS6KA5 normalised counts (RPS6KA5 mRNA, single replicates) was 126.01 and 136.28 and 130.89. For the same molecule, the “RPS6KA6 normalised counts, average” value (RPS6KA6 mRNA, average of 3 replicates) was 136.14, the RPS6KA6 normalised counts (RPS6KA6 mRNA, single replicates) was 127.82 and 135.42 and 145.18 and the “RPS6KB1 normalised counts, average” value (RPS6KB1 mRNA, average of 3 replicates) was 1559.99. The RPS6KB1 normalised counts (RPS6KB1 mRNA, single replicates) was 1574.89 and 1571.44 and 1533.65, the “RPS6KB2 normalised counts, average” value (RPS6KB2 mRNA, average of 3 replicates) was 3538.09 and the RPS6KB2 normalised counts (RPS6KB2 mRNA, single replicates) was 3546.44 and 3576.5 and 3491.33. For the same molecule, the “RPS6KC1 normalised counts, average” value (RPS6KC1 mRNA, average of 3 replicates) was 1368.65, the RPS6KC1 normalised counts (RPS6KC1 mRNA, single replicates) was 1361.29 and 1349.92 and 1394.73 and the “RPS6KL1 normalised counts, average” value (RPS6KL1 mRNA, average of 3 replicates) was 85.8967. The RPS6KL1 normalised counts (RPS6KL1 mRNA, single replicates) was 86.01 and 87.63 and 84.05 and the “RYK normalised counts, average” value (RYK mRNA, average of 3 replicates) was 1136.11.
